≈ marks a conversion by molar mass, not a printed value.
Columns and labels:
3T3 cells = test: NRU cell viability assay, 3T3; assay type: cell-based; details: Mus musculus, NIH3T3; 3T3, NRU, 24 h
Procedure: (§1) The murine Swiss albino fibroblast (3T3), the immortal human keratinocyte (HaCaT), the squamous cell carcinoma (A431), the human epithelial carcinoma (HeLa) and the human breast adenocarcinoma (MCF-7) cell lines were sourced from Celltec UB (Barcelona, Spain). All cells were maintained and grown in DMEM medium (4.5 g/L glucose) supplemented with 10% (v/v) FBS, 2 mM L-glutamine, 100 U/mL penicillin and 100 μg/mL streptomycin at 37 °C, 5% CO2. Cells were routinely cultured in 75 cm^2 culture flasks and were trypsinized using trypsin-EDTA when the cells reached approximately 80%. Cell concentration in the resulting suspension was assessed using the trypan blue assay, which enables direct discrimination between viable (unstained) and non-viable (blue) cells.
(§2) T3 and HaCaT cells (1 × 10^5 cells/mL), along with A431, HeLa, and MCF-7 cells (5 × 10^4 cells/mL), were cultured at defined seeding densities in the 60 central wells of a 96-well plate. Cells were first incubated for 24 h under standard incubator conditions (5% CO2, 37 °C). After this period, the culture medium was removed, and the cells were incubated for an additional 24 h with their corresponding compound solutions (1 mg/mL) previously diluted in a minimum amount of DMF (dimethylformamide) and then in DMEM medium supplemented with 5% FBS (100 µL) at the required concentration range (20 to 250 µg/mL). Cell viability following exposure to the lactam derivatives was evaluated using two complementary assays: NRU and MTT.
The neutral red uptake (NRU) assay is based on the accumulation of dye in the lysosomes of viable cells. After the cells were incubated for 24 h with the corresponding systems, the medium was removed, and the solutions were incubated with the NR dye (Sigma-Aldrich, St. Louis, MO, USA) solution (50 µg/mL) dissolved in the medium, without FBS and without phenol red (Lonza, Verviers, Belgium), for 3 h. Cells were then washed with sterile PBS, followed by the addition of 100 µL of a solution containing 50% absolute ethanol and 1% acetic acid in distilled water to extract the dye. To promote the total dissolution of the dye, plates were placed in a microtiter-plate shaker for 5 min at room temperature. The absorbance of the resulting solutions was measured at 550 nm (Bio-Rad 550 microplate reader, Bio-Rad California, Hercules, CA, USA). Finally, the effect of each treatment was calculated as the percentage of dye uptake by viable cells relative to the control cells (cells without any treatment). […]

MCF-7 cells = test: NRU cell viability assay, MCF-7; assay type: cell-based, human; details: Homo sapiens, MCF7; MCF-7, NRU, 24 h
Procedure: as §1, §2
(§3) The neutral red uptake (NRU) assay is based on the accumulation of dye in the lysosomes of viable cells. After the cells were incubated for 24 h with the corresponding systems, the medium was removed, and the solutions were incubated with the NR dye (Sigma-Aldrich, St. Louis, MO, USA) solution (50 µg/mL) dissolved in the medium, without FBS and without phenol red (Lonza, Verviers, Belgium), for 3 h. Cells were then washed with sterile PBS, followed by the addition of 100 µL of a solution containing 50% absolute ethanol and 1% acetic acid in distilled water to extract the dye. To promote the total dissolution of the dye, plates were placed in a microtiter-plate shaker for 5 min at room temperature. The absorbance of the resulting solutions was measured at 550 nm (Bio-Rad 550 microplate reader, Bio-Rad California, Hercules, CA, USA). Finally, the effect of each treatment was calculated as the percentage of dye uptake by viable cells relative to the control cells (cells without any treatment). Finally, the effect of each treatment was calculated as the percentage of dye retained by viable cells compared with untreated control cells.
(§4) The half-maximal inhibitory concentration (IC50) values for the different formulations, across cell lines and experimental endpoints, were obtained by fitting the concentration-dependent viability curves. […] These findings reflect the very low cytotoxicity of the compounds toward these cell lines.

[1] = Fish Embryo Acute Toxicity (FET) assay: lethality and dysmorphogenesis; assay type: in vivo; details: zebrafish (Danio rerio), in vivo; zebrafish embryos exposed 2 to 72 hpf, 1.95-125 µg/mL; read-out: LC50 (lethal concentration 50)
Procedure: (§5) (2 mM CaCl2·2H2O; 0.5 mM MgSO4·7H2O; 0.75 mM NaHCO3; 0.07 mM KCl). The fish were maintained at a temperature of 26 ± 1 °C on a 14 h light and 10 h dark cycle and were daily fed in the morning with Artemia salina, and with commercial flake food in the afternoon (SDS400, Special Diet Services, Dietex, France). The day before eggs were needed, males and females were placed in a breeding tank with plants at a 2:1 male-to-female ratio. The following morning, eggs were collected 30 min after the lights were turned on. […] Fertilized, non-coagulated, and synchronously divided eggs were selected using a stereomicroscope (Motic SMZ168, Motic China group, Ltd., Xiamen, China) and transferred to 6-well plates (10 embryos/well). Embryos were exposed to freshly prepared tested concentrations of the compound in 0.3× Danieau’s solution. Chemical stock solution was prepared in 100% dimethylsulfoxide (DMSO) and subsequently diluted in Danieau’s buffer with a final DMSO concentration of 1% (v/v). Test was carried out using five concentrations with a negative control, solvent control with 1% of DMSO. Embryos were incubated at 27 ± 1 °C with a light–dark cycle of 14:10 h until 72 h post-fertilization (hpf) under semi-static conditions, as exposure solutions were renewed by freshly prepared solutions every 24 h.
(§6) At 24, 48 and 72 hpf embryos were observed under a stereomicroscope to assess lethality. […] At the end of the test, dysmorphogenesis was evaluated in live embryos only. The average lethality and dysmorphogenesis were calculated for 10 embryos per concentration, followed by averaging the results of at least three independent experiments. […] The Teratogenic Index (TI) was deter-mined as the ratio between the LC50 and EC50 (TI = LC50/EC50).

zebrafish embryos = test: as above; assay type: in vivo; details: for EC50: Danio rerio, read-out: EC50 (dysmorphogenesis); for teratogenicity classification: TI > 2; for Teratogenic Index (TI = LC50/EC50): zebrafish embryos
Procedure: as §5, §6

[2] = NRU cell viability assay, A431; assay type: cell-based, human; details: human, A431 cells (squamous cell carcinoma), highest tested concentration (250 µg/mL)
Procedure: as §1, §2, §3, §4

[3] = NRU cell viability assay, HeLa; assay type: cell-based, human; details: human, HeLa cells (epithelial carcinoma), highest tested concentration (250 µg/mL)
Procedure: as §1, §2, §3, §4

[4] = NRU cell viability assay, MCF-7; assay type: cell-based, human; details: human, MCF-7 cells (breast adenocarcinoma), MCF-7, NRU, highest tested concentration (250 µg/mL)
Procedure: as §1, §2, §3, §4

| Structure (SMILES) | IC50 (3T3 cells) [µg/mL] | IC50 (MCF-7 cells) [µg/mL] | LC50 [1] [µg/mL] | EC50 (zebrafish embryos) [µg/mL] | teratogenicity classification (zebrafish embryos) | embryos exhibiting morphological abnormalities (zebrafish embryos; at 15.6 µg/mL) | Teratogenic Index (TI = LC50/EC50) (zebrafish embryos) | viability at 24 h, 250 µg/mL [2] [%] | viability at 24 h, 250 µg/mL [3] [%] | viability at 24 h, 250 µg/mL [4] [%] |
| --- | --- | --- | --- | --- | --- | --- | --- | --- | --- | --- |
| C[C@H](c1ccccc1)N1C[C@H](C)C(Cl)(Cl)C1=O [Compound 4] | 173 (≈ 634 µM) | > 250 | 33.2 (≈ 122 µM) | 11.2 (≈ 41.3 µM) | potential teratogens | more than 20% | 2.95 |  |  |  |
| C[C@@H]1CN([C@@H](C)c2ccccc2)C(=O)C1(Cl)Cl [Compound 3, (R)-3,3-dichloro-4-methyl-1-((S)-1-phenylethyl)pyrrolidin-2-one] | 65 (≈ 239 µM) | 60 (≈ 220 µM) | 63.8 (≈ 234 µM) | 18.3 (≈ 67.1 µM) | potential teratogens |  | 3.5 | 20 to 30 | 20 to 30 | 20 to 30 |
